Data set [1] has as its system chloroquine-sensitive 3D7 strain of P. falciparum. Nature of the data set: SYBR green I fluorescence-based antiplasmodial assay, Pf3D7. The note with it: Plasmodium falciparum. Type of data set: cell-based. Here is the method: (§1) The cytotoxicity assay was performed using the African green monkey normal kidney Vero cells (ATCC CRL 1586) and murine macrophages Raw 264.7 cells (ATCC #TIB-71) obtained from the American Type Culture Collection (ATCC).
(§2) The culture medium was renewed daily to propagate the culture. Thin blood smears were made and stained with 10% Giemsa solution for 10 min and microscopically examined under oil immersion to monitor cell cycle transition and parasitaemia.
(§3) Before each experiment, synchronized ring stage parasites were obtained by 5% sorbitol (w/v) treatment as previously described.
(§4) The parasite susceptibility was determined in 96-well microtitration plates using the SYBR green I fluorescence-based method with some modifications. Briefly, sorbitol-synchronized ring stage parasites (hematocrit: 1.5%, parasitemia: 1%) were incubated in the presence of two-fold diluted extracts (0.78-100 μg/mL, DMSO 0.5%), fractions (0.39-50 μg/mL, DMSO 0.5%) or compounds (0.15-20 μg/mL, DMSO 0.5%). […] Drug-free culture wells in 0.5% DMSO were considered as positive growth controls. After 72 h of incubation, 50 μL of SYBR Green I lysis solution [Tris (20 mM; pH 7.5) (Sigma–Aldrich), EDTA (5 mM) (Sigma–Aldrich), saponin (0.008%, w/v) (Sigma–Aldrich), Triton X-100 (0.08%, v/v) (Sigma–Aldrich) and SYBR Green (2x) (Life technologies)] were added to each well and the plate was incubated in the dark at 37 °C for 30 min. SYBR green I fluorescence was measured using a Fluoroskan Ascent multi-well plate reader (Thermo scientific) with excitation and emission wavelength bands set at 485 and 538 nm, respectively. […] The resistance indices (RI), defined as the ratio of the EC50 of drug-resistant strain to the EC50 of sensitive strain were calculated.
(§5) Microsoft Excel Software was used to calculate the percentage of inhibition. The EC50 and CC50 values for the in vitro antiplasmodial activity were determined by non-linear regression analysis using GraphPad Prism 5.0 Software.

Data set [2] has as its system multi-resistant Dd2 strain of P. falciparum. The experiment in a line: SYBR green I fluorescence-based antiplasmodial assay, PfDd2. To be noted: Plasmodium falciparum. It is filed as cell-based. Here is the method: as §1, §2, §3, §4, §5
The test system of data set [3] is FabI. Set-up: method as in PMID 16722653. The note with it: enzyme of fatty acid biosynthesis of P. falciparum; read-out: EC50 of FabI inhibition; cited from earlier work.
In data set [4] the test system is normal human cells HUVE. To be noted: read-out: 50% lethal concentration (LC50), HUVE; cited from earlier work.
Data set [5] deals with multi-resistant Dd2 strain of P. falciparum. Set-up: method as in PMID 12064726. The note with it: read-out: EC50 against multi-resistant Dd2 strain; cited from earlier work.
Data set [6] concerns red blood cells. To be noted: cited from earlier work.
In data set [7] the test system is P. berghei. The note with it: murine malaria model, cited from earlier work.
For data set [8], the system named is chloroquine-sensitive strain D10 of P. falciparum. Details: method as in PMID 21503279. The note with it: cited from earlier work.
Data set [9] deals with human liver cell line Huh7. To be noted: cited from earlier work.
Data set [10] in a line: Resazurin-based cytotoxicity assay, Raw 264.7 cells. The note with it: mouse. As to the method: as §1
The cytotoxicity of active natural products was assessed according to the protocol described by. The African green monkey normal kidney Vero cells (ATCC CRL 1586) and murine macrophages Raw 264.7 cells (ATCC #TIB-71) were maintained in T-25 flasks (Corning Incorporated, USA) using complete Dulbecco’s Modified Eagle’s Medium (Sigma-Aldrich, Germany), supplemented with, 10% Fetal Bovine Serum (Sigma-Aldrich, Germany), 0.2% sodium bicarbonate (w/v) (Sigma-Aldrich, Germany) and 1% (v/v) Penicillin-Streptomycin (Sigma-Aldrich, Germany). The cells were kept at 37 °C for 72 h in 5% CO2 incubator, and the medium was renewed each 72 h and the cell density monitored under the inverted fluorescent microscope Etaluma 520 (Etaluma, USA) until the formation of a monolayer. Confluent culture (nearly 90%) was trypsinized (0.05% Trypsin-EDTA, Sigma-Aldrich, Germany), then centrifuged at 1800 rpm for 5 min and the resulting pellet was re-suspended in culture medium. Cells at 10^4cells per well were seeded (100 μL) in 96-well culture plates (Costar, USA) and incubated overnight to allow cell adhesion. Thereafter, 10 μL of serially diluted extracts, fractions (≤200 μg/mL), and compounds (≤50 μg/mL) were added to plate wells in duplicate. The plates were incubated in a humidified and 5% CO2 atmosphere at 37 °C for 48 h. […] Fluorescence was then read using a Magelan Infinite M200 fluorescence multi-well plate reader (Tecan) with excitation and emission wavelengths at 530 and 590 nm, respectively. […] Selectivity indices (SI = CC50/EC50, defining the balance between cytotoxicity and antiplasmodial activity) were calculated for each test substance.
as §5
Background: The colour change of resazurin is a common sign of viable cells or microbes.

In data set [11] the test system is chloroquine sensitive strain Pf3D7. Set-up: method as in PMID 18710482. The note with it: read-out: EC50 against chloroquine sensitive strain Pf3D7; cited from earlier work.
The subject of data set [12] is normal human cells TIG-1. The note with it: read-out: 50% lethal concentration (LC50), TIG-1; cited from earlier work.
Data set [13] concerns chloroquine sensitive poW strain of P. falciparum. Details: method as in PMID 12064726. To be noted: read-out: EC50 against chloroquine sensitive poW strain; cited from earlier work.
Data set [14] deals with resistant strain W2 of P. falciparum. Set-up: method as in PMID 21503279. To be noted: cited from earlier work.
The subject of data set [15] is chloroquine resistant strain Pf7G8. Set-up: method as in PMID 18710482. To be noted: read-out: EC50 against chloroquine resistant strain Pf7G8; cited from earlier work.
Data set [16] concerns African green monkey normal kidney Vero cells. The experiment in a line: Resazurin-based cytotoxicity assay, Vero cells. The note with it: over Vero and Raw 264.7 cells and Pf3D7 and PfDd2 strains. As to the method:
as §1
(§6) The cytotoxicity of active natural products was assessed according to the protocol described by. The African green monkey normal kidney Vero cells (ATCC CRL 1586) and murine macrophages Raw 264.7 cells (ATCC #TIB-71) were maintained in T-25 flasks (Corning Incorporated, USA) using complete Dulbecco’s Modified Eagle’s Medium (Sigma-Aldrich, Germany), supplemented with, 10% Fetal Bovine Serum (Sigma-Aldrich, Germany), 0.2% sodium bicarbonate (w/v) (Sigma-Aldrich, Germany) and 1% (v/v) Penicillin-Streptomycin (Sigma-Aldrich, Germany). The cells were kept at 37 °C for 72 h in 5% CO2 incubator, and the medium was renewed each 72 h and the cell density monitored under the inverted fluorescent microscope Etaluma 520 (Etaluma, USA) until the formation of a monolayer. Confluent culture (nearly 90%) was trypsinized (0.05% Trypsin-EDTA, Sigma-Aldrich, Germany), then centrifuged at 1800 rpm for 5 min and the resulting pellet was re-suspended in culture medium. Cells at 10^4cells per well were seeded (100 μL) in 96-well culture plates (Costar, USA) and incubated overnight to allow cell adhesion. Thereafter, 10 μL of serially diluted extracts, fractions (≤200 μg/mL), and compounds (≤50 μg/mL) were added to plate wells in duplicate. The plates were incubated in a humidified and 5% CO2 atmosphere at 37 °C for 48 h. Podophyllotoxin at 20 μM was added as positive control and wells containing untreated cells were included as 100% growth control. Ten microliters of resazurin stock solution (0.15 mg/mL in sterile PBS), were added to each well, and incubated for an additional 4 h. Fluorescence was then read using a Magelan Infinite M200 fluorescence multi-well plate reader (Tecan) with excitation and emission wavelengths at 530 and 590 nm, respectively. The percentage of cell viability was calculated with regard to the negative control, and subsequently used to determine the concentration that reduced 50% of cell viability (CC50) by non-linear regression using the GraphPad Prism software version 5.0 (San Diego, California) as described above. Selectivity indices (SI = CC50/EC50, defining the balance between cytotoxicity and antiplasmodial activity) were calculated for each test substance.
as §5

Data set [17] can be described thus: in vitro. To be noted: African green monkey. As to the method:
as §1, §6, §5

Data set [18] has as its system PfDd2. Details: method as in PMID 19015351. To be noted: read-out: antiplasmodial potency PfDd2; cited from earlier work.
The test system of data set [19] is Pf3D7. Set-up: method as in PMID 19015351. The note with it: read-out: antiplasmodial potency Pf3D7; cited from earlier work.
Where [20] appears, read: 3D7, isolated compounds and reference drugs (Table 3), 72 h incubation, read-out: EC50 (μM) Pf3D7.
Where [21] appears, read: DD2, isolated compounds and reference drugs (Table 3), 72 h incubation, read-out: EC50 (μM) PfDd2.
The mark [22] stands for this setting: DD2, 72 h, read-out: EC50 (μM) PfDd2.

Values after ≈ are worked out from the molar mass of the structure shown. Values joined by “and” are separate entries in the source; they are usually repeats but may differ in a detail not shown here. Equal values may be shown once. Read-outs that look alike come from different tables or passages of the source.

For `C[C@@H]1CC[C@H]2[C@@H](C)C(=O)O[C@@H]3O[C@@]4(C)CC[C@@H]1[C@]32OO4` [Artemisinin, reference compound], the EC50 in data set [1] (3D7, Table 1 reference drugs, 72 h incubation, read-out: EC50 Pf3D7, reference drugs) is 0.014 ± 0.001 µM; in data set [1] (setting [20]), 0.014 ± 0.001 µM; in data set [2] (DD2, Table 1 reference drugs, 72 h incubation, read-out: EC50 PfDd2, reference drugs), 0.018 ± 0.003 µM; in data set [2] (setting [21]) it was 0.018 ± 0.003 µM.

With `CCN(CC)CCCC(C)Nc1ccnc2cc(Cl)ccc12` (stereo not drawn) [Chloroquine, reference compound], the EC50 came out at 0.018 ± 0.002 µM in data set [1] (3D7, 72 h, read-out: EC50 (μM) Pf3D7); 0.018 ± 0.002 µM in [1] (3D7, 72 h, read-out: EC50 Pf3D7, reference drugs (μM)); 0.449 ± 0.065 µM in data set [2] (setting [22]); 0.449 ± 0.065 µM in [2] (DD2, 72 h, read-out: EC50 PfDd2, reference drugs (μM)).

`O=c1cc(-c2ccc(O)cc2)oc2cc(O)cc(O)c12` [Compound 1, apigenin]: the EC50 is 50 µM in [3]; 19 ± 0.72 µM in data set [1] (setting [20]); 28.5 µM in data set [5]; 20 ± 3 µM in [11]; 19 µM in data set [13]; 16.4 ± 0.52 µM in data set [2] (setting [21]). In data set [15], the EC50 is 13 ± 2 µM. Besides, the CC50 in data set [4] and in data set [12] was 110 µM throughout. Also, the “membrane disruption on red blood cells, in words” value in [6] is reported as “no signs”. The results for the “suppression of P. berghei parasiteamia” value in data set [7] (15 mg/kg/day), in [7] (35 mg/kg/day) and in data set [7] (70 mg/kg/day) were 49.23%, 50.3% and 69.74%, respectively. Further, the “EC50 against chloroquine-sensitive strain D10” value in data set [8] is 25.4 ± 7.9 µg/mL (≈ 94 µM). Moreover, the “cytotoxicity on Huh7, in words” value in data set [9] was “no signs of cytotoxicity”. The CC50 at 48 h in [10] and in data set [17] was more than 185 µM in each case. Also, the “EC50 against resistant strain W2” value in [14] is 20.2 ± 6.4 µg/mL (≈ 74.7 µM). For the same molecule, the “SI (selectivity index)” value in [16] is given as “greater than 9”.

Consider `Oc1ccc([C@H]2Oc3cc(O)cc(O)c3C[C@@H]2O)cc1` [Compound 2, afzelechin], for which the EC50 in data set [1] (setting [20]) and in data set [2] (setting [21]) was more than 200 µM in each case.

On to `O=c1c(O)c(-c2ccc(O)cc2)oc2cc(O)cc(O)c12` [Compound 3, kaempferol], for which the EC50 in [1] (setting [20]) and in data set [2] (setting [21]) was more than 200 µM each time.

With `C=C(C)[C@@H]1CC[C@]2(C)CC[C@]3(C)C(CCC4[C@@]5(C)C[C@H](O)[C@H](O)C(C)(C)C5CC[C@]43C)C12` (stereo partly drawn) [Compound 4, 2β,3β-dihydroxylup-20-ene], the EC50 in [1] (setting [20]) and in [2] (setting [22]) was more than 200 µM in each case.

In the case of `COc1c(O)cc2c(=O)oc3c(OC)c(O)cc4c(=O)oc1c2c34` [Compound 6, 3,3′-O-dimethylellagic acid], the EC50 in data set [1] (setting [20]) was determined as 4.27 ± 0.05 µM; in data set [2] (setting [21]) it was 1.36 ± 0.47 µM. Besides, the CC50 at 48 h in data set [10] and in [17] was more than 152 µM each time. The “SI (selectivity index)” value in data set [16] is listed as “greater than 9”.

Take `COc1cc([C@@H]2c3cc4c(cc3[C@H](O)[C@H]3COC(=O)[C@H]23)OCO4)cc(OC)c1OC` [Podophyllotoxin, reference compound]: the CC50 at 48 h in data set [10] was 0.76 µg/mL and 1.83 µM; in data set [17], 1.89 µg/mL and 4.56 µM.

As to `O=c1oc2c(O)c(O)cc3c(=O)oc4c(O)c(O)cc1c4c23` [ellagic acid], the results for the EC50 in data set [18] and in data set [19] were 0.351 µM and 0.819 µM, respectively.

The values are drawn from paper PMC8243547 (BMC Complementary Medicine and Therapies, 2021).
